Experimental data taken from patent US20020090619A1, “Methods for identifying mitochondrial divalent cation transporters” (priority 2000, published 2002).

Columns and labels:
intact yeast = assay: Aequorin luminescence in intact yeast cells expressing mitochondrially targeted aequorin; format: cell-based, Saccharomyces cerevisiae
Protocol: Yeast cells (strain X4003-5B; leu2, ade1, his4, met2, ura3, trp5, gal1) obtained from the Yeast Genetic Stock Center (Berkeley, Calif.) were transformed with the pYES2 plasmid, encoding the human mitochondrially targeted apoaequorin fragment, using the lithium acetate method (Sambrook et al., 1989), and INVSc1 cells were transformed with the pGK plasmid encoding the yeast mitochondrially targeted apoaequorin fragment. Selection was carried out on plates prepared with synthetic complete medium minus uracil (SC-U) (Sherman, 1991 Meths. Enzymol. 194:3). Transformed colonies were cultured in a small volume of SC-U and assayed for aequorin activity in vitro as described by Nakajima et al. (1991 Proc. Nat. Acad. Sci. USA 88:6878). Briefly, the cells were harvested by centrifugation, resuspended in lysis buffer (50 mM Tris, 2 mM EDTA, 0.5 mM PMSF, pH 8 w/NaOH), disrupted by vortexing with glass beads, and then treated with 0.1% Triton X-100 to release apoaequorin from the mitochondria. Following centrifugation, 200 μl aliquots of the supernatants were incubated with coelenterazine (2.5 μM) and 2-mercaptoethanol (2 μl), for ˜3 hr while standing on ice, to form the luminescent aequorin from its apoprotein. The coelenterazine cofactor is highly hydrophobic and readily permeates yeast cell membranes (Nakajima et al., 1991) such that reconstitution was conducted without disrupting the cells in some cases. 2-mercaptoethanol was omitted when intact cells were employed. A transformant which yielded high luminescence (named X4003-5B-AEQmito1) was selected for further characterization.
For preculture, the transformant was inoculated into 50 ml of SC-U plus 2% glucose, and incubated in an air shaker at 180 rpm and 30° C. At 24 hr, the preculture was transferred to 500 ml of a medium containing 1% yeast extract, 2% peptone, 2% lactate, 1% galactose, 0.012% adenine, pH 5 w/NaOH, and growth was continued under conditions which were otherwise the same. […]
Luminescence measurements were carried out in 6×50 mm culture tubes, using a total volume of 0.3 ml, and were started by injection of 5-20 μl of mitochondria or cells. […] For each value, the ratio of observed luminescence (L) to the potential luminescence remaining (Lmax) was calculated, and compared to a calibration curve which relates this ratio to the free Ca^2+ concentration. […] The total luminescence available initially (Ltotal) must be known and was determined in separate experiments, wherein a saturating Ca^2+ concentration (20 μM) is employed to discharge the aequorin completely. This value allows Lmax to be calculated at any time, as Ltotal minus the sum of luminescence that already occurred. […]

yeast mitochondria = assay: Membrane potential ΔΨ of isolated yeast mitochondria (safranin O); format: biochemical, Saccharomyces cerevisiae; settings: BSA absent
Protocol: The yeast strain W303-1A (Saccharomyces cerevisiae) was grown aerobically at 30° C. in a medium containing 2% lactate, 1% yeast extract, 2% peptone, 0.05% dextrose, and 0.01% adenine at pH 5.0, and cells were harvested during the logarithmic phase (A600=1.8−2.2). Mitochondria were isolated from spheroplasts as previously described (Jung et al., 1997 J. Biol. Chem. 272:21104), except that 0.6 M sucrose was used in the homogenization medium instead of 0.6 M mannitol (Daum et al., 1982 J. Biol. Chem. 257:13028). The resulting preparations were maintained on ice and were suspended in 0.6 M mannitol 20 mM HEPES (K+) (pH 6.8), containing 0.75 mg/ml BSA and 0.1 mM EGTA. Protein concentration was determined by a reduced volume Biuret method in which 50 μl of the final preparation were solubilized by adding an equal volume of 10% deoxycholate (Na+), with 0.4 ml of Biuret reagent added to the resulting mixture. BSA was employed as the standard.
Unless otherwise noted, mitochondria were incubated at 1 mg protein/ml and at approximately 25° C. in a medium that contained 0.6 M mannitol, 10 mM Pi (K+), 10 mM Hepes (TEA+), pH 7.2, plus 1 mM ethanol as an oxidizable substrate. Compounds having a low solubility in water were added from stock solutions prepared in methanol or DMSO. Ca2+ transport and membrane potential were monitored using the indicating dyes antipyrylazo III (ΔA720-790) and safranin O (ΔA511-533), respectively (Akerman et al., 1976 FEBS Lett. 68:191; Scarpa et al., 1978 Biochem. 17:1378). An SLM Aminco DW-2C spectrophotometer operated in the dual wavelength mode was employed for these purposes. The same instrument, operated in split beam mode, was used to monitor mitochondrial swelling as a decrease in apparent absorbance of mitochondrial suspensions at 540 nm. Oxygen consumption data were obtained using a Clark-type electrode in parallel experiments. Atomic absorption spectroscopy was utilized to monitor the transport of other cations by yeast mitochondria. Briefly, samples were taken at appropriate times and the mitochondria were rapidly sedimented in a microcentrifuge. After carefully removing supernatants, the pellets were solubilized with 2 N percholoric acid (overnight) and centrifuged a second time. The resulting supernatants were diluted with an appropriate volume of distilled water and the concentration of the cation in question was subsequently determined.

O=C(COCC(=O)N(C1CCCCC1)C1CCCCC1)N(C1CCCCC1)C1CCCCC1 [ETH 129]
discharge of aequorin in intact cells (intact yeast; 6.5 μM ETH 129, FIG. 19A): discharge of essentially all of the aequorin | rise of mitochondrial Ca2+ concentration in response to ionophore (intact yeast; 6.5 μM ETH 129, cells oxidizing ethanol, 14 mM CaCl2, FIG. 20): 6 fold | effect on ΔΨ, ionophore together with Ca2+ (yeast mitochondria; CaCl2 plus ionophore, FIG. 11C): sustained reduction | effect on ΔΨ, agent alone (yeast mitochondria; FIG. 11B): little effect
